{"source": "patent US4094980A", "about": "“N-[1-(3',4'-methylenedioxy-phenyl)-propyl-(2)]-N'-phenyl-piperazines and salts thereof” (Boehringer Ingelheim GmbH, priority 1974, dated 1978)", "key": {"[1]": {"system": "adult laboratory mice of the NMRI-strain", "experiment": "CNS-Depression: Sliding test (loss of holding reflex on inclined glass plate)", "format": "in vivo", "conditions": "po, mouse; dose at which 50% of animals begin to slide off the glass plate; Probit-method", "description": "A statistically significant number of adult laboratory mice of the NMRI-strain are used as test animals. The test compound is administered perorally as a suspension in tylose by means of an esophageal sound, and the animal is placed on an inclined plate of glass. If the administered dose of the test compound has a CHS-depressing effect upon the animal, the treated mouse loses its normal holding reflex and slides off the plate. The test is repeated at varying dosage levels, and a median effective dose (ED50) is determined by the so-called Probit-method, i.e. the dose at which 50% of the test animals begin to slide off the glass plate."}, "total serum cholesterol": {"system": "total serum cholesterol", "experiment": "Reduction of serum cholesterol level (total serum cholesterol, Liebermann-Burchard auto-analyzer)", "format": "in vivo, male laboratory rats", "conditions": "rat", "description": "1. Reduction of serum cholesterol level\n85 male laboratory rats having a body weight of about 250 gm. The animals were individually kept in Makrolon-cages under controlled conditions. Food and water were freely accessible to the animals at all times, except on the day on which the blood samples were taken.\nThe test compounds were administered once daily per os by means of an esophageal sound.\nDetermination of total cholesterol in serum (mgm/100 ml) with the auto-analyzer according to Liebermann-Burchard (see J. Levine et al, Technicon-Symposium, 1967, Vol. 1, pg. 25).\nThe total serum cholesterol was determined in all test animals prior to the beginning of the test (day O), as well as on the 8th, 14th and 21st day. The blood sample was taken from the retrobulbar venous plexus. The animals were fasted for about 16 hours prior to determination of the serum cholesterol."}, "[2]": {"system": "adult laboratory mice of the NMRI-strain", "experiment": "CNS-Depression: Ataxia (atactic walking)", "format": "in vivo", "conditions": "po, mouse; dose at which ataxia occurs in 50% of the animals; Probit-method", "description": "A statistically significant number of adult laboratory mice of the NMRI-strain are used as the test animals. The test compound is administered perorally as a suspension in tylose by means of an esophageal sound, and the treated animal is observed for evidence of atactic (uncoordinated) walking. The test is repeated at varying dosage levels, and a median effective dose (ED50) is determined by the Probit-method, i.e. the dose at which ataxia occurs in 50% of the animals."}, "[3]": {"conditions": "day 0 (prior to the beginning of the test, baseline), group of 25 mgm/kg once daily per os"}, "[4]": {"conditions": "day 8, 25 mgm/kg once daily per os"}, "[5]": {"conditions": "day 14, 25 mgm/kg once daily per os"}, "[6]": {"conditions": "day 21, 25 mgm/kg once daily per os"}, "[7]": {"conditions": "day 0 (prior to the beginning of the test, baseline), group of 50 mgm/kg once daily per os"}, "[8]": {"conditions": "day 8, 50 mgm/kg once daily per os"}, "[9]": {"conditions": "day 14, 50 mgm/kg once daily per os"}, "[10]": {"conditions": "day 21, 50 mgm/kg once daily per os"}}, "data": [{"compound": "CC(Cc1ccc2c(c1)OCO2)N1CCN(c2ccc(Cl)cc2Cl)CC1", "note": "(stereo not drawn) [A, n-[1-(3,4-methylenedioxy-phenyl)-propyl-(2)]-N'-(2,4-dichloro-phenyl)-piperazine]", "values": [{"measurement": "ED50", "setting": "[1]", "result": 190, "unit": "mg/kg"}, {"measurement": "Average value of total serum cholesterol", "setting": "total serum cholesterol; [3]", "result": 96.7, "unit": "mgm/100 ml"}, {"measurement": "Average value of total serum cholesterol", "setting": "total serum cholesterol; [4]", "result": 27.5, "unit": "mgm/100 ml"}, {"measurement": "Average value of total serum cholesterol", "setting": "total serum cholesterol; [5]", "result": 12.5, "unit": "mgm/100 ml"}, {"measurement": "Average value of total serum cholesterol", "setting": "total serum cholesterol; [6]", "result": 13.0, "unit": "mgm/100 ml"}, {"measurement": "ED50", "setting": "[2]", "result": 160, "unit": "mg/kg"}]}, {"compound": "COc1ccc(N2CCN(C(C)Cc3ccc4c(c3)OCO4)CC2)c(C)c1", "note": "(stereo not drawn) [B, n-[1-(3,4-methylenedioxy-phenyl)-propyl(2)]-N'-(2-methyl-4-methoxy-phenyl)-piperazine]", "values": [{"measurement": "ED50", "setting": "[1]", "result": 960, "unit": "mg/kg"}, {"measurement": "Average value of total serum cholesterol", "setting": "total serum cholesterol; [3]", "result": 97.9, "unit": "mgm/100 ml"}, {"measurement": "Average value of total serum cholesterol", "setting": "total serum cholesterol; [4]", "result": 35.2, "unit": "mgm/100 ml"}, {"measurement": "Average value of total serum cholesterol", "setting": "total serum cholesterol; [5]", "result": 21.3, "unit": "mgm/100 ml"}, {"measurement": "Average value of total serum cholesterol", "setting": "total serum cholesterol; [6]", "result": 21.2, "unit": "mgm/100 ml"}, {"measurement": "ED50", "setting": "[2]", "result": 120, "unit": "mg/kg"}]}, {"compound": "CC(Cc1ccc2c(c1)OCO2)N1CCN(c2ccccc2Cl)CC1", "note": "(stereo not drawn) [Compound C, n-[1-(3,4-methylenedioxy-phenyl)-propyl(2)]-N'-(2-chlorophenyl)-piperazine]", "values": [{"measurement": "ED50", "setting": "[1]", "result": 2.2, "unit": "mg/kg"}, {"measurement": "Average value of total serum cholesterol", "setting": "total serum cholesterol; [3]", "result": 38.3, "unit": "mgm/100 ml"}, {"measurement": "Average value of total serum cholesterol", "setting": "total serum cholesterol; [4]", "result": 31.7, "unit": "mgm/100 ml"}, {"measurement": "Average value of total serum cholesterol", "setting": "total serum cholesterol; [5]", "result": 24.3, "unit": "mgm/100 ml"}, {"measurement": "Average value of total serum cholesterol", "setting": "total serum cholesterol; [6]", "result": 26.2, "unit": "mgm/100 ml"}, {"measurement": "ED50", "setting": "[2]", "result": 2.2, "unit": "mg/kg"}]}, {"compound": "COc1ccccc1N1CCN(C(C)Cc2ccc3c(c2)OCO3)CC1", "note": "(stereo not drawn) [Compound D]", "values": [{"measurement": "ED50", "setting": "[1]", "result": "> 14", "unit": "mg/kg"}, {"measurement": "Average value of total serum cholesterol", "setting": "total serum cholesterol; [7]", "result": 112.9, "unit": "mgm/100 ml"}, {"measurement": "Average value of total serum cholesterol", "setting": "total serum cholesterol; [8]", "result": 87.3, "unit": "mgm/100 ml"}, {"measurement": "Average value of total serum cholesterol", "setting": "total serum cholesterol; [9]", "result": 86.3, "unit": "mgm/100 ml"}, {"measurement": "Average value of total serum cholesterol", "setting": "total serum cholesterol; [10]", "result": 82.1, "unit": "mgm/100 ml"}, {"measurement": "ED50", "setting": "[2]", "result": 39, "unit": "mg/kg"}]}, {"compound": "Cc1cccc(C)c1N1CCN(C(C)Cc2ccc3c(c2)OCO3)CC1", "note": "(stereo not drawn) [E, n-[1-(3,4-methylenedioxy-phenyl)-propyl(2)]-N'-(2,6-dimethyl-phenyl)-piperazine]", "values": [{"measurement": "ED50", "setting": "[1]", "result": 25, "unit": "mg/kg"}, {"measurement": "Average value of total serum cholesterol", "setting": "total serum cholesterol; [7]", "result": 107.3, "unit": "mgm/100 ml"}, {"measurement": "Average value of total serum cholesterol", "setting": "total serum cholesterol; [8]", "result": 71.2, "unit": "mgm/100 ml"}, {"measurement": "Average value of total serum cholesterol", "setting": "total serum cholesterol; [9]", "result": 61.7, "unit": "mgm/100 ml"}, {"measurement": "Average value of total serum cholesterol", "setting": "total serum cholesterol; [10]", "result": 63.5, "unit": "mgm/100 ml"}, {"measurement": "ED50", "setting": "[2]", "result": 105, "unit": "mg/kg"}]}]}
